Test results published in ChEMBL document CHEMBL5465560, “Selectivity Literature for EUbOPEN Chemogenomic Library” (2024).

Columns and labels:
[1] = molecular target: Serine/threonine-protein kinase PAK 2 (Homo sapiens) (UniProt Q13177); assay: Selectivity interaction (KinomeScan (DiscoverX)) EUB0000229b PAK2; conditions: at 10 µM
[2] = molecular target: Ribosomal protein S6 kinase beta-1 (Homo sapiens, UniProt P23443); assay: Selectivity interaction (KinomeScan (DiscoverX)) EUB0000695a RPS6KB1; conditions: at 100 nM
Chain of Ribosomal protein S6 kinase beta-1 (P23443 whole entry, looked up): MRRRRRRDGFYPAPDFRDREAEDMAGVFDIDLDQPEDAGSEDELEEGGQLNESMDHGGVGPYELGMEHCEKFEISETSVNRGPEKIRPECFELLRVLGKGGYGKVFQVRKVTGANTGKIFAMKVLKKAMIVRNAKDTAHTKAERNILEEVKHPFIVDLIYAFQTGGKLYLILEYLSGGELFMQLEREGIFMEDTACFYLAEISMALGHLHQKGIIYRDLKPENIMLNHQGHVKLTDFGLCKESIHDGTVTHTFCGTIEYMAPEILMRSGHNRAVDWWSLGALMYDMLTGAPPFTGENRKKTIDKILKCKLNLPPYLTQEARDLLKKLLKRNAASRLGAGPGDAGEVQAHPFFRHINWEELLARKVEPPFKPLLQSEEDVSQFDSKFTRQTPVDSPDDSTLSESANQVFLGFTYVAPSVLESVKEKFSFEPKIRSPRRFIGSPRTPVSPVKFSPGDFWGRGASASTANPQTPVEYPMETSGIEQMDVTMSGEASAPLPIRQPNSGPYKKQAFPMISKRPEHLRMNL

[3] = molecular target: T1, Tyrosine-protein kinase receptor TYRO3 (Homo sapiens) (UniProt Q06418); assay: Selectivity interaction (KinomeScan (DiscoverX)) EUB0001049a TYRO3; conditions: at 1 µM
T1 sequence (whole entry): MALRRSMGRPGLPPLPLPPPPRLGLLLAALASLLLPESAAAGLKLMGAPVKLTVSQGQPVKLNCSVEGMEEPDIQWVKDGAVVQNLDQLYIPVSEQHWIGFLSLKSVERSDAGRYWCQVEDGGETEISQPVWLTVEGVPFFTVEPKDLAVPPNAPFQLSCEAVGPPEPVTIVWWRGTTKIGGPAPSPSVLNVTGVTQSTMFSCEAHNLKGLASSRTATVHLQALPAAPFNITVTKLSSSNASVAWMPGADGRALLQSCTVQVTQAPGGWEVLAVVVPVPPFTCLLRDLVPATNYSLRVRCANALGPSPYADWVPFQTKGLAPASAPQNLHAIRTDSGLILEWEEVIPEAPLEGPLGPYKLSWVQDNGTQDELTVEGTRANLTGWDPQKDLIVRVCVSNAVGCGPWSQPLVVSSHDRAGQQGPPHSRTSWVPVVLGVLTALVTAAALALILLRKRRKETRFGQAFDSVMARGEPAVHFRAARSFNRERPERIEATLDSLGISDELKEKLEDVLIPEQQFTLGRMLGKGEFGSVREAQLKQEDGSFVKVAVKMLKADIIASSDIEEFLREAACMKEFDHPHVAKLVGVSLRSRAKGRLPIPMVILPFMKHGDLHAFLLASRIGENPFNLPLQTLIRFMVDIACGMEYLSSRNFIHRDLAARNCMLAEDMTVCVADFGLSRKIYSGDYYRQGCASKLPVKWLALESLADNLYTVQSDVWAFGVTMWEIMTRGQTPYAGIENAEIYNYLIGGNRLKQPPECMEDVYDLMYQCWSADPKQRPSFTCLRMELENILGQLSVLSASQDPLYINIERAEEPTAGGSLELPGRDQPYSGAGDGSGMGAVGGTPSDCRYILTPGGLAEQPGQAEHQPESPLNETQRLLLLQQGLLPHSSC

[4] = molecular target: Ribosomal protein S6 kinase alpha-2 (Homo sapiens) (UniProt Q15349); assay: Selectivity interaction (ActivX KiNativ screen (ex vivo kinase selectivity in human PBMCs)) EUB0001619a RPS6KA2; assay type: cell-based; conditions: PBMC, at 1 µM
Chain of Ribosomal protein S6 kinase alpha-2 (Homo sapiens) (Q15349 whole entry): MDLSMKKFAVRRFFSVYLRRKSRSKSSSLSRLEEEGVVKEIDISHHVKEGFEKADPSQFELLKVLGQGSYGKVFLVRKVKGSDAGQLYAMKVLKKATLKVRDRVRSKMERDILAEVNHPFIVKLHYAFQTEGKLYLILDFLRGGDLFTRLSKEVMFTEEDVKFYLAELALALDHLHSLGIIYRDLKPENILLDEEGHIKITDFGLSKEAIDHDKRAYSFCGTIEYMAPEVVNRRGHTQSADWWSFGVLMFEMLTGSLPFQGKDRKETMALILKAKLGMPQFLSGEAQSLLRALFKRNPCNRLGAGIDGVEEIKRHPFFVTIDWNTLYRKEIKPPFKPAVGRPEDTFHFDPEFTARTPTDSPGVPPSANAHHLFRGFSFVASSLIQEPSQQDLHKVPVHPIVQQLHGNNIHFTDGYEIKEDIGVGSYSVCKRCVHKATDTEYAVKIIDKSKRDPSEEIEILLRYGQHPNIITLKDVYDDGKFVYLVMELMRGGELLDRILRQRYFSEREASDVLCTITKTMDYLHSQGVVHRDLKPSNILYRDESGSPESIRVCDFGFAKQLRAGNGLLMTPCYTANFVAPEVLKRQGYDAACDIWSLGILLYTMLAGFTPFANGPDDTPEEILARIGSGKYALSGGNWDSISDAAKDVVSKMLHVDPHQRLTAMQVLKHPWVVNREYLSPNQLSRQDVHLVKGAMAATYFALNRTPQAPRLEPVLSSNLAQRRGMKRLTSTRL

[5] = molecular target: T2, Ephrin type-B receptor 1 (Homo sapiens) (UniProt P54762); assay: Selectivity interaction (KinomeScan (DiscoverX)) EUB0000607a EPHB1; conditions: at 10 µM
T2 sequence (whole entry): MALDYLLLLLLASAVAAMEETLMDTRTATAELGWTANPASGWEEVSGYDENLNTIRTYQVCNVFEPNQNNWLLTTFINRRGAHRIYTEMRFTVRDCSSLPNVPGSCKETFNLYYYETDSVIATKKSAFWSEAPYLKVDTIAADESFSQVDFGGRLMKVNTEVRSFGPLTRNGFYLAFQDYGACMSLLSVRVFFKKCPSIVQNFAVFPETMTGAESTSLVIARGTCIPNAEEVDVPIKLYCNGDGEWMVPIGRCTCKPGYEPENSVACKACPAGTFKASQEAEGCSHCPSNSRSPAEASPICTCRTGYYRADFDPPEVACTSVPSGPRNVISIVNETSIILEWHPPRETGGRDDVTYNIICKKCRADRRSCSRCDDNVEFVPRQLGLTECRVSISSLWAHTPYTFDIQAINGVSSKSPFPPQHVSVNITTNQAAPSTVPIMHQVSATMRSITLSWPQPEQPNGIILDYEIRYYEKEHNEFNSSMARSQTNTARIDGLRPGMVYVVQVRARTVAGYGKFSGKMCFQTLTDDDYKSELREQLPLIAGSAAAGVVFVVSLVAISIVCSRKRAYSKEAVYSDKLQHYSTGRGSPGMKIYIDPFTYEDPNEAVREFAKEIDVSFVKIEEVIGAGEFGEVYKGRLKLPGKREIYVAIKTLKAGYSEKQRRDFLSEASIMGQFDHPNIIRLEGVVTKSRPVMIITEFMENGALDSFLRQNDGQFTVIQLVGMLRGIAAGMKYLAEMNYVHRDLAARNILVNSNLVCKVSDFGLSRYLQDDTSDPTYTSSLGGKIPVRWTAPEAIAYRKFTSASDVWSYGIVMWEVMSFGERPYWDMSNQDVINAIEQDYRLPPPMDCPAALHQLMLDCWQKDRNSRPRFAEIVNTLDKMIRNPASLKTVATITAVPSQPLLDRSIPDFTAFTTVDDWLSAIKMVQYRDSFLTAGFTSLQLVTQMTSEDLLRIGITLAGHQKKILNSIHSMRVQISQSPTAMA

[6] = molecular target: T3, TGF-beta receptor type-1 (Homo sapiens) (UniProt P36897); assay: Selectivity interaction (KinomeScan (DiscoverX)) EUB0000607a TGFBR1; conditions: at 10 µM
T3 sequence (whole entry): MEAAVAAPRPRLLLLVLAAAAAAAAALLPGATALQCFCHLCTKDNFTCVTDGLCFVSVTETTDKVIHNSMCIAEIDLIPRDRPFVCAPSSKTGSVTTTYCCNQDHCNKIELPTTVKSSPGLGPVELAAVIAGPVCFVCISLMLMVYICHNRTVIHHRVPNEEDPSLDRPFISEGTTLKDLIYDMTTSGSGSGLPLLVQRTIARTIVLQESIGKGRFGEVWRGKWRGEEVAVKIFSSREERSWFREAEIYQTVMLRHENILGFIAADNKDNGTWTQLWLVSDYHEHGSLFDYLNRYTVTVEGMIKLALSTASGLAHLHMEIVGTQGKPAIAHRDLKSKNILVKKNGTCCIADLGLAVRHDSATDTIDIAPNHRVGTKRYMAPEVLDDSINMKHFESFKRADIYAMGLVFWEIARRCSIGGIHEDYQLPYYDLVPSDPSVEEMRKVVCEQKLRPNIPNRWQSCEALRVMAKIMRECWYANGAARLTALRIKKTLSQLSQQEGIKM

[7] = molecular target: Serine/threonine-protein kinase MARK2 (Homo sapiens) (UniProt Q7KZI7); assay: Selectivity interaction (ActivX KiNativ screen (kinase selectivity in THP-1 cell lysates)) EUB0000639a MARK2; assay type: subcellular; conditions: lysate, at 1 µM
Chain of Serine/threonine-protein kinase MARK2 (Homo sapiens) (Q7KZI7 whole entry): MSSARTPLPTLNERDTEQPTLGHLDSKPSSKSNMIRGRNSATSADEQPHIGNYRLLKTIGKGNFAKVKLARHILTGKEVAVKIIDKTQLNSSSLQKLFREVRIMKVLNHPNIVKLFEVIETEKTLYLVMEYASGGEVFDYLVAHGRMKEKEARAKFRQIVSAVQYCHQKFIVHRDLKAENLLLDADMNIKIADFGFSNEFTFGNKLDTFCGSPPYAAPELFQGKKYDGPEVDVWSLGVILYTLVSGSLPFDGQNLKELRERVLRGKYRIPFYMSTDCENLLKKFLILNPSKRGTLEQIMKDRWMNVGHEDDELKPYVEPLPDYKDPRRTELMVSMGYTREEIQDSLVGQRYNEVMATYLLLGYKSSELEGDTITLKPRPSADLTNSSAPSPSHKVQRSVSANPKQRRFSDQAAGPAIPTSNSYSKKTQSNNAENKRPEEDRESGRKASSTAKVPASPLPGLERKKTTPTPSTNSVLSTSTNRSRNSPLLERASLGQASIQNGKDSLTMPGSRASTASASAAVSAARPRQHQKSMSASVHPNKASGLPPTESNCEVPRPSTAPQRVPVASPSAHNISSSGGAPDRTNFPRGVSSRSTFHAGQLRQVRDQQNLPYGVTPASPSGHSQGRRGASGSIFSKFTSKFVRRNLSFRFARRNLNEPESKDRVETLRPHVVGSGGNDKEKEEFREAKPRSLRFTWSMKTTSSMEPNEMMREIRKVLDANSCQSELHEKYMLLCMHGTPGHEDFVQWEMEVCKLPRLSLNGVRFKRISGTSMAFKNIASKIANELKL

Chain of Serine/threonine-protein kinase PAK 2 (Homo sapiens) (Q13177 whole entry): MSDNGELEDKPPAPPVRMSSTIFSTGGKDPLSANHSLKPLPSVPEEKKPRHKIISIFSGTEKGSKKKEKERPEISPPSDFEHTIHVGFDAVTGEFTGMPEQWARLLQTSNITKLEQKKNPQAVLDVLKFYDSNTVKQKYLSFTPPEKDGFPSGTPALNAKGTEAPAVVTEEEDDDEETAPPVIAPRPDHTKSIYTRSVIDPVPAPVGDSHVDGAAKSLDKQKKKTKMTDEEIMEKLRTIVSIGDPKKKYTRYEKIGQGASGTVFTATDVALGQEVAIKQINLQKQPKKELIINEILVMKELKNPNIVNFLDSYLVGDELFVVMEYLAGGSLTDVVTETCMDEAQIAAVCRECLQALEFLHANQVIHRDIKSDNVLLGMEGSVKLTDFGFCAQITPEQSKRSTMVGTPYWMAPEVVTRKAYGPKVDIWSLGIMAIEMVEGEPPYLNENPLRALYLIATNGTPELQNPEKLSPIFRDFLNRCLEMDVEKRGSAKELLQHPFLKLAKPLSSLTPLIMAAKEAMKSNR

## COc1cc(N(C)c2ccnc3ccc(C(F)(F)F)cc23)cc(OC)c1OC
[1]
  % binding: 77%

## Cc1cc(F)c(C(=O)Nc2cccc(-c3nncn3C(C)C)n2)cc1-n1cnc(C2CC2)c1
[2]
  % of control: 100%

## COc1cc(Nc2nc(C)cc(-c3cnn4nc(OC)ccc34)n2)cc(C(F)(F)F)c1
[3]
  % of control: 76%

## N#Cc1cccc(-c2c[nH]c3ncnc(N4CCOCC4)c23)c1
[4]
  % of inhibition: -3%

## CNC(=O)Nc1ccc(-c2nc(N3CC4CCC(C3)O4)c3cnn(C4CCC5(CC4)OCCO5)c3n2)cc1
[5]
  % of control: 90%
[6]
  % of control: 100%

## CC[C@@H]1[C@H](F)C(=O)N[C@@H]1COc1nccc2cc(C(N)=O)c(OC)cc12 [ZIMLOVISERTIB]
[7]
  % of inhibition: 26.6%
